US8354412B2, “Beta-3 receptor ligands and their use in therapy” (Universita' Degli Studi di Bari, priority 2006, dated 2013)
Like-named read-outs stand apart in the source and are kept apart here.

How the values were obtained:
[1] = target: T1, cloned human β1-adrenergic receptor (Homo sapiens, UniProt P08588); assay: [3H]-dihydroalprenolol binding on CHO cell membranes, β1-adrenergic receptor
T1 construct: expressed in transfected cells; host or cells: CHO (membranes)
Experimental: (§1) The cell lines of “Chinese hamster ovary” (CHO) that individually express the three subtypes of the human adrenergic receptor (β1, β2 or β3 were grown at 37° C. in an atmosphere composed of 5% of CO2 and 95% of air in a culture medium of Dulbecco's Modified Eagle Medium with a nutrient mixture of F12 (DMEM/F12) supplemented with 10% of bovine fetal Serum, 2 mM of L-glutamine, 100 units/ml of penicillin G and 100 μg/ml of […].
(§2) The preconfluence cells were washed with cold PBS, removed from the surface of the plate, collected in cold lysis buffer (10×10^6/ml; 5 mM Tris/HCl, 2 mM EDTA, pH 7.4 at 4° C.) and homogenized with a Brinkmann Polytron (5 for 3×10 secs). The cell membranes obtained were then […] for 10 mins at 4° C. at 1000 g. The supernatant was centrifuged at 10000 g for 30 min. at 4° C. The resultant membrane pellet was resuspended in cold incubation buffer (50 mM Tris/HCl, 10 mM MgCl2, pH 7.4 for the binding experiments on the β1-adrenergic receptors; 50 mM Tris/HCl, pH 7.4 for the binding experiments of on the β2-adrenergic receptors) and its protein content was then determined. The membrane suspension obtained was used immediately or stored at −80° C. until used in the binding experiments.
(§3) The saturation experiments were conducted by incubating the cell membranes (50 μg of protein) in 500 μl of incubation buffer, containing increasing concentrations of [^3H]-dihydroalprenolol (0.1 nM, 0.5 nM, 1 nM, 3 nM, 5 nM, 10 nM). The β1-adrenergic receptors were incubated at 30° C. for 30 min. while the incubation lasted 90 min. in the case of the β2-adrenergic receptor. […] The filters were then washed (3×1 ml) with cold incubation buffer. The residual radioactivity of the filters was measured using a Beckmann LS6500 Multi-purpose scintillator.
(§4) The competitive experiments were conducted by incubation of 50 μg of protein with increasing quantities of the compound under examination (from 10^−9M to 10^−4M) and 4 nM [^3H]-dihydroalprenolol for the β1-adrenergic receptor or 0.4 nM for the β2-adrenergic receptor, in a total volume of 500 μl of incubation buffer.

[2] = target: T2, cloned human beta-3 adrenergic receptor (Homo sapiens, UniProt P13945); assay: cAMP accumulation (DELFIA cAMP-Eu assay) in CHO-K1 cells expressing the beta-3 adrenergic receptor; assay type: cell-based; conditions: for Emax: CHO-K1, read-out: Intrinsic Activity (IA %); for EC50: concentration of ligand producing 50% of maximum cAMP accumulation, CHO-K1 human β3, SEM, n ≧ 3; for type of activity on the beta-3 adrenergic receptor (in words): statement in the description
T2 construct: expressed in transfected cells; host or cells: CHO-K1
T2 sequence (P13945 whole entry): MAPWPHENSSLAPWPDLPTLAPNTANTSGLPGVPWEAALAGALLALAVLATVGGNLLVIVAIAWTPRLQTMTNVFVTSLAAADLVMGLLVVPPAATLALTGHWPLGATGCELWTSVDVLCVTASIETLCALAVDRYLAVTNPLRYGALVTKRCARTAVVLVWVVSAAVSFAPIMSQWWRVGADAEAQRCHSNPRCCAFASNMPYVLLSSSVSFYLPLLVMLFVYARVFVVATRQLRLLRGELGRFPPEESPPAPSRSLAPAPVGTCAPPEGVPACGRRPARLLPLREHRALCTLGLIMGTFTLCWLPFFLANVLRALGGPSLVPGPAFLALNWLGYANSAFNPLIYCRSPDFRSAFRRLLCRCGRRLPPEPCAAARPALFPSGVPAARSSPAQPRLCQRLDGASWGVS
Experimental: The determination of the beta-3 adrenergic activity of the compounds of general formula (I) was performed by measuring the levels of cAMP in cell lines of CHO-K1 that express the cloned human beta-3 adrenergic receptor. The accumulation of cAMP is directly correlated to the beta-3 adrenergic activity of the compound and is a predictive measure of the effectiveness of the ligand. The accumulation of cAMP produced by the compounds 1a-1h was determined using the Dissociation Enhanced Lanthanide Fluorescence Immunoassay (DELFIA®, Gabriel, D.; Vernier, M.; Pfeifer, M. J.; Dasen, B.; Tenaillon, L.; Bouhelal, R. Assay and Drug Development Technologies 2003, 1, 291-303), endowed with greater sensitivity and greater accuracy than [α-^32P] radioisotope methods (Hoffmann, C.; Leitz, M. R.; Obendorf-Maass, S.; Lohse, M. J.; Klotz, K.-N. Naunyn-Schmiedeberg's Arch. Pharmacol. 2004, 369, 151-159) or [^3H] (Nannies, K. M.; Briend-Sutren, M. M.; Emorine, L. J.; Delavier-Klutchko, C.; Marullo, S.; Strosberg, A. D. Eur. J. Biochem. 1991, 196, 357-361) of determining the levels of cAMP in cell lines.
as §1
The DELFIA test (Dissociation Enhanced Lanthanide […] Immuno Assay) used for measuring the levels of cAMP was performed according to the protocol supplied by PerkinElmer Life Science. The optimization of the experimental conditions (quantity of cells, times of incubation) is reported below.
A plate of confluence cells was trypsinized and the cells were resuspended in the aforementioned culture medium, sown at a concentration of 50000 cells/200 μl per well in a 96-well plate and cultivated overnight in a CO2 incubator. The culture medium was then aspirated from every well and substituted with 100 μl of culture substrate without serum, preheated at 37° C. The plate was then put back into a CO2 incubator for 30 mins at 37° C. 50 μl of IBMX (3-isobutyl-1-methylxanthine) 1 mM, an inhibitor of the phosphodiesterase was then added to all the wells. In some wells 50 μl of forskolin (compound used for the validation of the DELFIA) was added at different concentrations (100 nM, 500 nM, 1 μM, 10 μM, 50 μM) and in the other wells 50 μl of the compounds to be tested at the same concentrations as the forskolin; the plate was then again incubated for 30 min at 37° C. The cells, at this point, were lysed and incubated at room temperature for 5 min. The plate was used immediately for measuring the levels of cAMP or stored at 4° C. until the measurement was carried out. The fluorescence was determined using a multilabel time-resolved fluorimetry technique performed on a PerkinElmer 1420 Victor®. The excitation and emission wavelengths were 340 nm and 615 nm respectively.

[3] = target: T3, cloned human β2-adrenergic receptor (Homo sapiens, UniProt P07550); assay: [3H]-dihydroalprenolol binding on CHO cell membranes, β2-adrenergic receptor
T3 construct: expressed in transfected cells; host or cells: CHO (membranes)
T3 sequence (P07550 whole entry): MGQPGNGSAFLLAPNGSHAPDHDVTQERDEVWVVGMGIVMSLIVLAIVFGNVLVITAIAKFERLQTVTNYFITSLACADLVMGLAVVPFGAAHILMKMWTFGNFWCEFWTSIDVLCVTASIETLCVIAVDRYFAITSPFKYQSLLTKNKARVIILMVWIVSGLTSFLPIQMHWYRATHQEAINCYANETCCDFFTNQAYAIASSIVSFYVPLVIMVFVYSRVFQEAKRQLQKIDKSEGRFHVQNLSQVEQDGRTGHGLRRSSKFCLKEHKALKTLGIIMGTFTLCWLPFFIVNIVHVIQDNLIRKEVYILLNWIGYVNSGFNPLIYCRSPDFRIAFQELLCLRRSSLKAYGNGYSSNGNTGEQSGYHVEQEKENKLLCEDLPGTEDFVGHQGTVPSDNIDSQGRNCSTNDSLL
Experimental: as §1, §2, §3, §4

[4] = target: T1, cloned human β1-adrenergic receptor; assay: [3H]-dihydroalprenolol binding on CHO cell membranes, β1-adrenergic receptor; conditions: compound at 10 μM
[5] = target: T3, cloned human β2-adrenergic receptor; assay: [3H]-dihydroalprenolol binding on CHO cell membranes, β2-adrenergic receptor; conditions: compound at 10 μM
[6] = human β1, Cheng-Prusoff, 4 nM [3H]-dihydroalprenolol, read-out: Binding Ki, β1
[7] = maximum cAMP response, isoproterenol 10^−4 M = 100%, absence of agonists = 0%
[8] = human β2, Cheng-Prusoff, 0.4 nM [3H]-dihydroalprenolol, read-out: Binding Ki, β2

T1 sequence (P08588 whole entry): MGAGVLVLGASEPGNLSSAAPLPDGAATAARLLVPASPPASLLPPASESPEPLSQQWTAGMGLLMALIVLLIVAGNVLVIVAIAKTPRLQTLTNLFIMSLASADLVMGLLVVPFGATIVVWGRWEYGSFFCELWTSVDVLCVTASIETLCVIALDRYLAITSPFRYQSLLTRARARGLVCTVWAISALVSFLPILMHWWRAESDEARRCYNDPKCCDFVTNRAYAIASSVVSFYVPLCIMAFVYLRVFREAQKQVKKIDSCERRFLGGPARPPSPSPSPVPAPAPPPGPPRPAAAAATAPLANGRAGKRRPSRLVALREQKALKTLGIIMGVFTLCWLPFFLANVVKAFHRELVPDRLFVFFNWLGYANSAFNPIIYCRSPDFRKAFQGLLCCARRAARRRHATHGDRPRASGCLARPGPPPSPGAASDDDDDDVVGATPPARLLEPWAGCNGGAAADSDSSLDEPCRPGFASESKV

| Ki [1, 6] | Emax [2, 7] | EC50 [2] | type of activity on the beta-3 adrenergic receptor (in words) [2] | Ki [3, 8] | Compound | Intrinsic Activity (IA %) [2, 7] | % activation at 10 μM, β1 [4] | % activation at 10 μM, β2 [5] | Ki [1] | Ki [3] |
| --- | --- | --- | --- | --- | --- | --- | --- | --- | --- | --- |
| > 7000 nM | 65% | 3.8 ± 0.7 nM | – | > 5000 nM | CC(Oc1ccc(CCNCC(O)c2ccccc2)cc1)C(=O)O (racemic) [Compound 1d, (±)-2-{4-[2-(2-phenyl-2-hydroxyethylamino)ethyl]phenoxy}propionic acid] | – | – | – | – | – |
| > 7000 nM | 72% | 3.9 ± 2.1 nM | – | > 5000 nM | CC(C)(Oc1ccc(CCNC[C@H](O)c2ccccc2)cc1)C(=O)O [Compound 1b, (2R)-(−)-2-{4-[2-(2-phenyl-2-hydroxyethylamino)ethyl]phenoxy}-2-methylpropionic acid] | – | – | – | – | – |
| > 7000 nM | 76% | 3.4 ± 0.8 nM | – | > 5000 nM | CC(C)(Oc1ccc(CCNC[C@@H](O)c2ccccc2)cc1)C(=O)O [Compound 1c, (2S)-(+)-2-{4-[2-(2-phenyl-2-hydroxyethylamino)ethyl]phenoxy}-2-methylpropionic acid] | – | – | – | – | – |
| > 7000 nM | -64% | 192 ± 19 nM | inverse agonist activity | > 5000 nM | C[C@H](Oc1ccc(CCNC[C@@H](O)c2ccccc2)cc1)C(=O)O [Compound 1e, (2S)-(+)-2-{4-[2-((2S)-2-phenyl-2-hydroxyethylamino)ethyl]phenoxy}propionic acid] | – | – | – | – | – |
| > 7000 nM | 50% | 2.2 ± 0.7 nM | particularly active compound as agonist | > 5000 nM | C[C@H](Oc1ccc(CCNC[C@H](O)c2ccccc2)cc1)C(=O)O [Compound 1f, (2S)-(−)-2-{4-[2-((2R)-2-phenyl-2-hydroxyethylamino)ethyl]phenoxy}propionic acid] | – | – | – | – | – |
| > 7000 nM | -73% | 176 ± 20 nM | inverse agonist activity | > 5000 nM | C[C@@H](Oc1ccc(CCNC[C@@H](O)c2ccccc2)cc1)C(=O)O [Compound 1g, (2R)-(+)-2-{4-[2-((2S)-2-phenyl-2-hydroxyethylamino)ethyl]phenoxy}propionic acid] | – | – | – | – | – |
| > 7000 nM | 35% | 107 ± 37 nM | – | > 5000 nM | C[C@@H](Oc1ccc(CCNC[C@H](O)c2ccccc2)cc1)C(=O)O [Compound 1h, (2R)-(−)-2-{4-[2-((2R)-2-phenyl-2-hydroxyethylamino)ethyl]phenoxy}propionic acid] | – | – | – | – | – |
| > 7000 nM | 58% | 5 ± 1.9 nM | – | > 5000 nM | COc1ccc(S(=O)(=O)N2CCN(C[C@H](O)COc3ccccc3)CC2)cc1 [Compound 2a, (S)-2-hydroxy-3-[4-(4-methoxyphenylsulfonyl)piperazin-1-yl]-1-phenoxy propane] | – | – | – | – | – |
| > 7000 nM | 67% | 1.97 ± 0.92 nM | – | > 5000 nM | COc1ccc(S(=O)(=O)N2CCN(C[C@H](O)COc3ccc(O)cc3)CC2)cc1 [Compound 2b, (S)-2-hydroxy-1-(4-hydroxyphenoxy)-3-[4-(4-methoxyphenylsulfonyl)piperazin-1-yl]propane] | – | – | – | – | – |
| > 7000 nM | 48% | 8.3 ± 1.94 nM | – | > 5000 nM | COc1ccc(S(=O)(=O)N2CCN(C[C@H](O)COc3ccc(OCc4ccccc4)cc3)CC2)cc1 [Compound 2c, (S)-1-(4-benzyloxyphenoxy)-2-hydroxy-3-[4-(4-methoxybenzenesulfonyl)piperazin-1-yl]propane] | – | – | – | – | – |
| > 7000 nM | 84% | 4.1 ± 1.93 nM | – | > 5000 nM | COc1ccc(S(=O)(=O)N2CCN(C[C@H](O)COc3cccc([N+](=O)[O-])c3)CC2)cc1 [Compound 2d, (S)-2-hydroxy-3-[4-(4-methoxyphenylsulfonyl)piperazin-1-yl]-1-(3-nitrophenoxy)-propane] | – | – | – | – | – |
| > 7000 nM | – | – | – | > 5000 nM | COc1ccc(S(=O)(=O)N2CCN(C[C@H](O)COc3cccc(N)c3)CC2)cc1 [Compound 2e, (S)-1-(3-aminophenoxy)-2-hydroxy-3-[4-(4-methoxyphenylsulfonyl)piperazin-1-yl]propane] | – | – | – | – | – |
| > 7000 nM | 43% | 5.24 ± 1.08 nM | – | > 2000 nM | COc1ccc(S(=O)(=O)N2CCN(C[C@H](O)COc3cccc4ccccc34)CC2)cc1 [Compound 2i, (S)-2-hydroxy-1-(napht-1-yloxy)-3-[4-(4-methoxyphenylsulfonyl)piperazin-1-yl)propane] | – | – | – | – | – |
| > 7000 nM | 38% | 3.8 ± 1.8 nM | – | 177 nM | COc1ccc(S(=O)(=O)N2CCN(C[C@H](O)COc3cccc4[nH]c5ccccc5c34)CC2)cc1 [Compound 2j, (S)-1-(Carbazol-4-yloxy)-2-hydroxy-3-[4-(4-methoxybenzenesulfonyl)piperazin-1-yl)propane] | – | – | – | – | – |

| Compound | Ki [1, 6] | Emax [2, 7] | EC50 [2] | type of activity on the beta-3 adrenergic receptor (in words) [2] | Ki [3, 8] | Intrinsic Activity (IA %) [2, 7] | % activation at 10 μM, β1 [4] | % activation at 10 μM, β2 [5] | Ki [1] | Ki [3] |
| --- | --- | --- | --- | --- | --- | --- | --- | --- | --- | --- |
| CC(C)(Oc1ccc(CCNCC(O)c2ccccc2)cc1)C(=O)O (racemic) [Compound 1a, (±)-2-{4-[2-(2-phenyl-2-hydroxyethylamino)ethyl]phenoxy}-2-methylpropionic acid] | > 7000 nM | 68% | 4.9 ± 0.25 nM | behaves as an agonist of the beta-3 adrenergic receptor independently of the configuration of the chiral atom | > 5000 nM | – | – | – | – | – |
| C[C@@H](Oc1ccc(CCN[C@H](C)[C@@H](O)c2ccccc2)cc1)C(=O)O [Compound 1j] | > 7000 nM | – | 211 ± 10 nM | – | > 5000 nM | (39) % | 20% | 21% | – | – |
| C[C@H](NCCc1ccc(O[C@H](C)C(=O)O)cc1)[C@@H](O)c1ccccc1 [Compound 1k, (R)-2-[4-[2-((1S,2S)-1-hydroxy-1-phenylpropan-2-yl-amino)ethyl]phenoxy]propionic acid] | – | 53% | 1.97 ± 0.9 nM | – | – | – | – | – | > 7000 nM | > 5000 nM |
